According to paper PMC6352943, “Novel pyrazolo[3,4-d]pyrimidines: design, synthesis, anticancer activity, dual EGFR/ErbB2 receptor tyrosine kinases inhibitory activity, effects on cell cycle profile and caspase-3-mediated apoptosis” (Journal of Enzyme Inhibition and Medicinal Chemistry, 2019):
“And” between values parts separate entries of the source, which are not always exact repeats. Identical values can stand only once.

Key:
[1] = test system: UACC-62; assay: NCI 60 cell line single dose screen (SRB); assay type: cell-based; conditions: Homo sapiens; UACC-62 (melanoma), single dose 10^−5 M, 48 h; read-out: Growth inhibition percentage
How it was run: (§1)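 Cells were plated and grown 24 h at 37 °C, 5% CO2 before compound addition from DMSO stock, then exposed 48 h. Adherent cells were fixed with cold TCA (final 10%) and suspension cells with 16% TCA. SRB-stained protein was read at 515 nm and percent growth was calculated against time-zero and untreated plates.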

[2] = test system: CAKI-1; assay: NCI 60 cell line single dose screen (SRB); assay type: cell-based; conditions: Homo sapiens; CAKI-1 (renal cancer), single dose 10^−5 M, 48 h; read-out: Growth inhibition percentage
How it was run: as §1

[3] = test system: OVCAR-4 cells; assay: Annexin V-FITC/PI apoptosis assay; assay type: cell-based, human
Description: Annexin V fluorescein isothiocyanate (FITC)/PI apoptosis detection kit (BD Biosciences) was used according to the manufacturer’s instructions to measure the apoptotic activity of compound 7d. OVCAR-4 cells were incubated with Annexin V-FITC. […] The cells then were collected by trypsinisation and 0.5 × 10^6 cells were washed twice with PBS and stained with 5 μL Annexin V-FITC and 5 μL PI in 1 × binding buffer for 15 min at room temperature in the dark. Analyses were performed using FACS Calibur flow cytometer (BD Biosciences, San Jose, CA).
The apoptotic activity of compound 7d was further studied using Annexin V-FITC assay, which includes dual staining using Annexin V, a Ca^2+-dependent protein, and Propidium iodide (PI). Annexin V binds to phosphatidylserine (PS) expressed only on the surface of the apoptotic cells and fluoresces green after interacting with the fluorochrome labelled annexin-V. On the other hand, PI stains DNA and enters only dead cells. This assay can give a differential analysis to the percentages of living, early apoptotic, late apoptotic and necrotic cells. […] Moreover, a significant increase in the percentage of Annexin-V positive cells (almost 9 folds more than control) occurred indicating an early apoptosis (lower right quadrant). In addition, an increase by 7 folds more than control in the percentage of PI positive cells (upper left quadrant) indicating necrotic cells. Some treated cells were in a late apoptotic stage (upper right quadrant), this was indicated by the significant increase in the percentage of Annexin V positive, PI positive cells (16 folds more than control).

[4] = test system: OVCAR-4 cells; assay: Cell cycle analysis by flow cytometry (PI); assay type: cell-based, human
Description: After treatment, the cells were washed twice with ice-cold PBS, collected by centrifugation, and fixed in ice-cold 70% (v/v) ethanol, washed with PBS, re-suspended with 0.1 mg/mL RNase, stained with […] propidium iodide (PI), and analysed by flow cytometry using FACS Calibur (Becton Dickinson)[31]. The cell cycle distributions were calculated using Cell-Quest software (Becton Dickinson).

[5] = test system: human active caspase-3; assay: Active caspase-3 level (ELISA) in OVCAR-4 cells; assay type: cell-based; conditions: OVCAR-4 cells treated at IC50 for 24 h
Description: The level of human active caspase-3 protein was evaluated using Invitrogen (Catalog KHO1091) ELISA kit. The manufacturer’s instructions were followed in the following procedures. Add 100 μL of the standard diluent buffer to the zero standard wells. Add 100 μL of standards and controls or diluted samples to the appropriate microtitre wells. Cover wells with and incubate for 2 h at room temperature. Thoroughly aspirate or decant solution from wells and discard the liquid. Pipette 100 μL of caspase-3 (active) detection antibody solution into each well. Cover plate and incubate for 1 h at room temperature. Add 100 μL Anti-Rabbit IgG HRP working solution to each well. Cover wells with the plate cover and incubate for 30 min at room temperature. Add 100 μL of stabilised chromogen to each well. The liquid in the wells will begin to turn blue. Incubate for 30 min at room temperature. Stop solution has been added to each well. The solution in the wells should change from blue to yellow. Read the plate within 2 h after adding the stop solution. Use a curve fitting software to generate the standard curve.
EGFR and ErbB2 tyrosine kinase inhibitors are well known to potentiate the intrinsic apoptotic pathway via increase in caspase-3 enzyme activity[34]^,[35].

[6] = OVCAR-4, 7d at IC50 (1.74 μM), 24 h

Compound | inhibition at 10 µM [1] [%] | inhibition at 10 µM [2] [%] | %Apoptosis Early ([3]; OVCAR-4, 7d at IC50 (1.74 μM), 24 h, lower right quadrant) [%] | %Necrosis ([3]; OVCAR-4, 7d at IC50 (1.74 μM), 24 h, upper left quadrant) [%] | %Apoptosis Late ([3]; OVCAR-4, 7d at IC50 (1.74 μM), 24 h, upper right quadrant) [%] | Increase in percentage of Annexin V positive, PI positive cells (late apoptosis) versus control ([3]; OVCAR-4, at IC50, 24 h) [folds] | Increase in percentage of Annexin-V positive cells (early apoptosis) versus control ([3]; OVCAR-4, at IC50, 24 h) [folds] | Increase in percentage of PI positive cells (necrotic cells) versus control ([3]; OVCAR-4, at IC50, 24 h) [folds] | Cell cycle distribution %Apoptosis (pre-G1) [4, 6] [%] | Cell cycle distribution %G0/G1 [4, 6] [%] | Cell cycle distribution %G2/M [4, 6] [%] | Cell cycle distribution %S [4, 6] [%] | Increase in cells accumulated in pre-G1 phase compared to control ([4]; OVCAR-4, at IC50, 24 h) [folds] | Increase in percentage of cells at G2/M phases compared to control ([4]; OVCAR-4, at IC50, 24 h) [folds] | Increase in the level of active caspase-3 compared to control [5] | Caspase3 conc. ([5]; mean ± SD of three experiments) [pg/mL]
Cc1nn(-c2ccc(F)cc2)c2ncnc(Cl)c12 [Compound 6, 4-Chloro-1–(4-fluorophenyl)-3-methyl-1H-pyrazolo[3,4-d]pyrimidine] | 12.6 | 1.02 |  |  |  |  |  |  |  |  |  |  |  |  |  | 
Cc1nn(-c2ccc(F)cc2)c2ncnc(Nc3ccc(F)c(Cl)c3)c12 [Compound 7d, N-(3-Chloro-4-fluorophenyl)-1–(4-fluorophenyl)-3-methyl-1H-pyrazolo[3,4-d] pyrimidin-4-amine] |  |  | 7.52 | 2.88 | 11.31 | 16 | ~9 | 7 | 21.71 | 29.77 | 36.44 | 33.79 | ~11 | 5 | 10.8 fold and 11 fold | 568.50 ± 14.0
